In publication PMC6199744, “Development of Chemical Proteomics for the Folateome and Analysis of the Kinetoplastid Folateome” (ACS Infectious Diseases, 2018):
Like-named read-outs stand apart in the source and are kept apart here.

Test system: T. brucei lysate proteins
Format: binding, Trypanosoma brucei

SMILES: CCCCCCOc1ccc(Cc2cnc(N)nc2N)cc1 [compound 1]
- fold change (relative to vehicle control = 1, protein TB09.160.3270 ATP-DEPENDENT DEAD BOX HELICASE, PUTATIVE): 0.99
- fold change (relative to vehicle control = 1, protein TB09.160.4250 TR[…]): 0.87
- fold change (relative to vehicle control = 1, protein TB09.211.3540 GLYCEROL KINASE, GLYCOSOMAL): 0.92
- fold change (relative to vehicle control = 1, protein TB11.01.0450 PROTEIN PHOSPHATASE 1, PUTATIVE): 0.96
- fold change (relative to vehicle control = 1, protein TB11.01.1270 NUCLEIC ACID BINDING PROTEIN, PUTATIVE): 0.97
- fold change (relative to vehicle control = 1, protein TB11.01.1290 14-3-3-I PROTEIN): 0.77
- fold change (relative to vehicle control = 1, protein TB11.02.1135 DYNEIN LIGHT CHAIN, PUTATIVE): 0.88
- fold change (relative to vehicle control = 1, protein TB11.02.4700 14-3-3 PROTEIN): 0.96
- fold change (relative to vehicle control = 1, protein TB11.03.0815 DYNEIN LIGHT CHAIN): 0.76
- fold change (relative to vehicle control = 1, protein TB11.50.0007 DYNEIN LIGHT CHAIN LC8, PUTATIVE): 0.99
- fold change (relative to vehicle control = 1, protein TB427TMP.01.1400 GLYCYL-TRNA SYNTHETASE, PUTATIVE): 0.88
- fold change (relative to vehicle control = 1, protein TB427TMP.01.1830 HY[…], CONSERVED): 0.86
- fold change (relative to vehicle control = 1, protein TB427TMP.01.3370 […] PROTEIN, PUTATIVE): 0.94
- fold change (relative to vehicle control = 1, protein TB427TMP.01.6880 CYTOSOLIC COAT PROTEIN, PUTATIVE): 0.88
- fold change (relative to vehicle control = 1, protein TB427TMP.01.7490 HY[…], CONSERVED): 0.95
- fold change (relative to vehicle control = 1, protein TB427TMP.01.7530 HY[…], CONSERVED): 0.92
- fold change (relative to vehicle control = 1, protein TB427TMP.02.0750 T-COMPLEX PROTEIN 1, ZETA SUBUNIT, PUTATIVE): 0.94
- fold change (relative to vehicle control = 1, protein TB427TMP.02.1120 ADENYL[…], PUTATIVE): 0.93
- fold change (relative to vehicle control = 1, protein TB427TMP.02.1460 HY[…], CONSERVED): 0.82
- fold change (relative to vehicle control = 1, protein TB427TMP.02.3120 MALIC ENZYME, PUTATIVE): 0.77
- fold change (relative to vehicle control = 1, protein TB427TMP.02.4550 HY[…], CONSERVED): 0.91
- fold change (relative to vehicle control = 1, protein TB427TMP.02.5450 GLUCOSE-REGULATED PROTEIN 78, PUTATIVE): 0.89
- fold change (relative to vehicle control = 1, protein TB427TMP.02.5660 HY[…], CONSERVED): 0.82
- fold change (relative to vehicle control = 1, protein TB427TMP.03.0090 RIBOKINASE, PUTATIVE): 0.87
- fold change (relative to vehicle control = 1, protein TB427TMP.03.0460 HY[…], CONSERVED): 0.85
- fold change (relative to vehicle control = 1, protein TB427TMP.160.4770 PROTEIN KINASE, PUTATIVE): 0.92
- fold change (relative to vehicle control = 1, protein TB427TMP.160.4910 FLAVOPROTEIN MONOOXYGENASE, PUTATIVE): 0.89
- fold change (relative to vehicle control = 1, protein TB427TMP.22.0004 HY[…], CONSERVED): 0.97
- fold change (relative to vehicle control = 1, protein TB427.01.3830 GLUCOSE-6-PHOSPHATE ISOMERASE, GLYCOSOMAL): 1
- fold change (relative to vehicle control = 1, protein TB427.01.4050 PROTEIN P[…] EF-HAND DOMAINS (PPEF)): 0.94
- fold change (relative to vehicle control = 1, protein TB427.02.1170 RETRO[…] SPOT (RHS) PROTEIN, PUTATIVE): 0.85
- fold change (relative to vehicle control = 1, protein TB427.02.6220 ADENOSINE TRANSPORTER 2, PUTATIVE): 0.95
- fold change (relative to vehicle control = 1, protein TB427.03.3160 POLY(A) POLYMERASE): 0.97
- fold change (relative to vehicle control = 1, protein TB427.03.3560 HY[…], CONSERVED): 0.92
- fold change (relative to vehicle control = 1, protein TB427.03.4190 ENDOSOMAL INTEGRAL MEMBRANE PROTEIN, PUTATIVE): 0.99
- fold change (relative to vehicle control = 1, protein TB427.03.5420 PROTEIN TRANSPORT PROTEIN SEC24): 0.8
- fold change (relative to vehicle control = 1, protein TB427.04.1510 PHOSPHOLIPID-TRA[…], PUTATIVE): 0.88
- fold change (relative to vehicle control = 1, protein TB427.05.1320 HY[…], CONSERVED): 0.97
- fold change (relative to vehicle control = 1, protein TB427.05.300 THYMINE-7-HYDROXYLASE, PUTATIVE): 0.92
- fold change (relative to vehicle control = 1, protein TB427.05.3800 GLUTAMINE HYDROLYSING (NOT AMMONIA-DEPENDENT) […] PHOSPHATE SYNTHASE, PUTATIVE): 0.88
- fold change (relative to vehicle control = 1, protein TB427.05.4530 FATTY ACID ELONGASE, PUTATIVE): 0.75
- fold change (relative to vehicle control = 1, protein TB427.06.2550 RNA-BINDING PROTEIN, PUTATIVE): 0.89
- fold change (relative to vehicle control = 1, protein TB427.06.3650 ADP-RI[…], PUTATIVE): 0.84
- fold change (relative to vehicle control = 1, protein TB427.06.3860 HY[…], CONSERVED): 0.55
- fold change (relative to vehicle control = 1, protein TB427.07.2340 40S RIBOSOMAL PROTEIN S15, PUTATIVE): 0.82
- fold change (relative to vehicle control = 1, protein TB427.07.2570 MRNA […], PUTATIVE): 0.69
- fold change (relative to vehicle control = 1, protein TB427.07.7500 THYMINE-7-HYDROXYLASE, PUTATIVE): 0.94
- fold change (relative to vehicle control = 1, protein TB427.08.3150 T-COMPLEX PROTEIN 1, GAMMA SUBUNIT, PUTATIVE): 0.9
- fold change (relative to vehicle control = 1, protein TB427.08.3490 HY[…], CONSERVED): 0.94
- fold change (relative to vehicle control = 1, protein TB427.08.5460 FLAGELLAR CALCIUM-BINDING PROTEIN): 0.99
- fold change (relative to vehicle control = 1, protein TB427.08.6110 HY[…], CONSERVED): 0.71
- fold change (relative to vehicle control = 1, protein TB427.10.11930 NAD OR NADP DEPENDENT OXIDOREDUCTASE, PUTATIVE): 0.63
- fold change (relative to vehicle control = 1, protein TB427.10.12510 P-TYPE H+-ATPASE, PUTATIVE): 0.99
- fold change (relative to vehicle control = 1, protein TB427.10.13110 DYNEIN LIGHT CHAIN, PUTATIVE): 0.86
- fold change (relative to vehicle control = 1, protein TB427.10.13880 HY[…], CONSERVED): 0.88
- fold change (relative to vehicle control = 1, protein TB427.10.14140 PYRUVATE KINASE 1): 0.98
- fold change (relative to vehicle control = 1, protein TB427.10.14910 SA[…] GLYCOPROTEIN, PUTATIVE): 1
- fold change (relative to vehicle control = 1, protein TB427.10.15180 […] PROTEIN, PUTATIVE): 0.82
- fold change (relative to vehicle control = 1, protein TB427.10.2350 PYRUVATE DEH[…] E3 BINDING PROTEIN, PUTATIVE): 0.7
- fold change (relative to vehicle control = 1, protein TB427.10.4940 NUCLEAR DBF2-RELATED KINASE): 0.93
- fold change (relative to vehicle control = 1, protein TB427.10.7630 HY[…], CONSERVED): 0.98
- fold change (relative to vehicle control = 1, protein TB427.10.9800 60S RIBOSOMAL PROTEIN L22): 1
- fold change (relative to vehicle control = 1, protein TB927.10.12840 MIT[…] PROTEIN, PUTATIVE): 0.8
- fold change (relative to vehicle control = 1, protein TB927.10.13780 GLYCOGEN SYNTHASE KINASE 3): 0.99
- fold change (relative to vehicle control = 1, protein TB927.10.14980 INTR[…] PROTEIN IFT52, PUTATIVE): 0.96
- fold change (relative to vehicle control = 1, protein TB927.1.2330 BETA TUBULIN): 0.9
- fold change (relative to vehicle control = 1, protein TB927.1.2400 ALPHA TUBULIN): 0.89
- fold change (relative to vehicle control = 1, protein TB927.10.3280 60S RIBOSOMAL PROTEINS L38, PUTATIVE): 0.97
- fold change (relative to vehicle control = 1, protein TB927.10.4180 TFIIF-[…] PHOSPHATASE, PUTATIVE): 0.98
- fold change (relative to vehicle control = 1, protein TB927.10.5330 40S RIBOSOMAL PROTEIN S18, PUTATIVE): 1.1
- fold change (relative to vehicle control = 1, protein TB927.10.5500 HY[…], CONSERVED): 0.92
- fold change (relative to vehicle control = 1, protein TB927.10.6670 DYNEIN LIGHT CHAIN, PUTATIVE): 0.95
- fold change (relative to vehicle control = 1, protein TB927.2.2440 […]-ATPASE SUBUNIT 6): 0.96
- fold change (relative to vehicle control = 1, protein TB927.2.2510 HY[…], CONSERVED): 0.96
- fold change (relative to vehicle control = 1, protein TB927.2.3800 MRNA […], PUTATIVE): 0.87
- fold change (relative to vehicle control = 1, protein TB927.3.1120 GTP-BINDING NUCLEAR PROTEIN RTB2, PUTATIVE): 0.91
- fold change (relative to vehicle control = 1, protein TB927.3.3490 HIGH MOBILITY GROUP PROTEIN, PUTATIVE): 0.88
- fold change (relative to vehicle control = 1, protein TB927.4.4650 […] SYNTHASE, PUTATIVE): 0.79
- fold change (relative to vehicle control = 1, protein TB927.4.5310 SERINE/THREONINE-PROTEIN KINASE A, PUTATIVE): 0.99
- fold change (relative to vehicle control = 1, protein TB927.5.1930 HY[…], CONSERVED): 0.78
- fold change (relative to vehicle control = 1, protein TB927.6.2200 HY[…], CONSERVED): 0.92
- fold change (relative to vehicle control = 1, protein TB927.6.4140 PAR[…] COMPONENT, PUTATIVE): 0.9
- fold change (relative to vehicle control = 1, protein TB927.7.2500 […] SUBUNIT 1): 0.95
- fold change (relative to vehicle control = 1, protein TB927.7.2700 NADH-CYTOCHROME B5 REDUCTASE, PUTATIVE): 0.76
- fold change (relative to vehicle control = 1, protein TB927.7.4480 ADENOSINE 5'-[…], PUTATIVE): 0.83
- fold change (relative to vehicle control = 1, protein TB927.7.4500 HY[…], CONSERVED): 0.97
- fold change (relative to vehicle control = 1, protein TB927.8.1510 ATP-DEPENDENT DEAD/H RNA HELICASE, PUTATIVE): 0.94
- fold change (vs vehicle control, protein TB09.160.3710 PRO[…] NUCLEAR ANTIGEN (PCNA), PUTATIVE): 0.96
- fold change (vs vehicle control, protein TB11.01.4370 HY[…], CONSERVED): 0.98
- fold change (vs vehicle control, protein TB427TMP.01.5690 DRBD4): 0.94
- fold change (vs vehicle control, protein TB427.01.1670 HY[…], CONSERVED): 0.91
- fold change (vs vehicle control, protein TB427.04.760 GAMMA-ADAPTIN 1, PUTATIVE): 0.93
- fold change (vs vehicle control, protein TB427.07.1420 HY[…], CONSERVED): 0.92
- fold change (vs vehicle control, protein TB427.10.11760 PUMILIO/PUF RNA BINDING PROTEIN 6): 0.96
- fold change (vs vehicle control, protein TB427.10.2290 CHAPERONE PROTEIN DNAJ, PUTATIVE): 0.8
- fold change (vs vehicle control, protein TB927.5.1630 HY[…], CONSERVED): 0.91
